{"source": "the supplement of paper PMC10307832", "test_in_all_cases": "relative viability (nuclei count vs DMSO), 5 days (fraction); higher = more cells survive", "key": {"[1]": {"system": "201T", "in_short": "(§1)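 Lung cancer cell lines in 1536-well plates got either a single drug or a fixed anchor-drug dose together with five library-drug doses (not always all listed) in √10 steps, by pin tool, on the day after seeding. Nuclei were counted after 5 days, and relative viability is the treated-to-vehicle ratio of nuclei counts. Values are medians of duplicate plates.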"}, "[2]": {"system": "BEN", "in_short": "as §1"}, "[3]": {"system": "CAL-12T", "in_short": "as §1"}, "[4]": {"system": "COR-L 105", "in_short": "as §1"}, "[5]": {"system": "H3255", "in_short": "as §1"}, "[6]": {"system": "HARA", "in_short": "as §1"}, "[7]": {"system": "HCC-15", "in_short": "as §1"}, "[8]": {"system": "HCC-827", "in_short": "as §1"}, "[9]": {"system": "LC-2-ad", "in_short": "as §1"}, "[10]": {"system": "LCLC-103H", "in_short": "as §1"}, "[11]": {"system": "LK-2", "in_short": "as §1"}, "[12]": {"system": "LU99A", "in_short": "as §1"}, "[13]": {"system": "LXF-289", "in_short": "as §1"}, "[14]": {"system": "NCI-H1437", "in_short": "as §1"}, "[15]": {"system": "NCI-H1651", "in_short": "as §1"}, "[16]": {"system": "NCI-H1792", "in_short": "as §1"}, "[17]": {"system": "NCI-H2085", "in_short": "as §1"}, "[18]": {"system": "NCI-H2228", "in_short": "as §1"}, "[19]": {"system": "NCI-H23", "in_short": "as §1"}, "[20]": {"system": "NCI-H2405", "in_short": "as §1"}, "[21]": {"system": "NCI-H322M", "in_short": "as §1"}, "[22]": {"system": "RERF-LC-KJ", "in_short": "as §1"}, "[23]": {"system": "UMC-11", "in_short": "as §1"}}, "data": [{"smiles": "O=c1[nH]c2ccccc2n1C1CCN(CCCC(c2ccc(F)cc2)c2ccc(F)cc2)CC1", "note": "[Pimozide] + CS(=O)(=O)N1CCN(Cc2cc3nc(-c4cccc5[nH]ncc45)nc(N4CCOCC4)c3s2)CC1 [Pictilisib] (partner 1 µM)", "values": [{"measurement": "relative viability", "setting": "[1]; first compound 0.08 µM", "result": 0.69}, {"measurement": "relative viability", "setting": "[1]; first compound 0.253 µM", "result": 0.613}, {"measurement": "relative viability", "setting": "[1]; first compound 0.8 µM", "result": 0.6}, {"measurement": "relative viability", "setting": "[1]; first compound 2.53 µM", "result": 0.669}, {"measurement": "relative viability", "setting": "[1]; first compound 8 µM", "result": 0.599}, {"measurement": "relative viability", "setting": "[2]; first compound 0.08 µM", "result": 0.627}, {"measurement": "relative viability", "setting": "[2]; first compound 0.253 µM", "result": 0.565}, {"measurement": "relative viability", "setting": "[2]; first compound 0.8 µM", "result": 0.583}, {"measurement": "relative viability", "setting": "[2]; first compound 2.53 µM", "result": 0.542}, {"measurement": "relative viability", "setting": "[2]; first compound 8 µM", "result": 0.595}, {"measurement": "relative viability", "setting": "[3]; first compound 0.08 µM", "result": 0.399}, {"measurement": "relative viability", "setting": "[3]; first compound 0.253 µM", "result": 0.244}, {"measurement": "relative viability", "setting": "[3]; first compound 0.8 µM", "result": 0.418}, {"measurement": "relative viability", "setting": "[3]; first compound 2.53 µM", "result": 0.462}, {"measurement": "relative viability", "setting": "[3]; first compound 8 µM", "result": 0.332}, {"measurement": "relative viability", "setting": "[4]; first compound 0.253 µM", "result": 0.507}, {"measurement": "relative viability", "setting": "[4]; first compound 0.8 µM", "result": 0.449}, {"measurement": "relative viability", "setting": "[4]; first compound 2.53 µM", "result": 0.338}, {"measurement": "relative viability", "setting": "[4]; first compound 8 µM", "result": 0.353}, {"measurement": "relative viability", "setting": "[5]; first compound 0.253 µM", "result": 0.406}, {"measurement": "relative viability", "setting": "[5]; first compound 0.8 µM", "result": 0.575}, {"measurement": "relative viability", "setting": "[5]; first compound 2.53 µM", "result": 0.456}, {"measurement": "relative viability", "setting": "[5]; first compound 8 µM", "result": 0.506}, {"measurement": "relative viability", "setting": "[6]; first compound 0.08 µM", "result": 0.252}, {"measurement": "relative viability", "setting": "[6]; first compound 0.253 µM", "result": 0.423}, {"measurement": "relative viability", "setting": "[6]; first compound 0.8 µM", "result": 0.595}, {"measurement": "relative viability", "setting": "[6]; first compound 2.53 µM", "result": 0.351}, {"measurement": "relative viability", "setting": "[6]; first compound 8 µM", "result": 0.368}, {"measurement": "relative viability", "setting": "[7]; first compound 0.08 µM", "result": 0.809}, {"measurement": "relative viability", "setting": "[7]; first compound 0.253 µM", "result": 0.767}, {"measurement": "relative viability", "setting": "[7]; first compound 0.8 µM", "result": 0.616}, {"measurement": "relative viability", "setting": "[7]; first compound 2.53 µM", "result": 0.709}, {"measurement": "relative viability", "setting": "[7]; first compound 8 µM", "result": 0.749}, {"measurement": "relative viability", "setting": "[8]; first compound 0.253 µM", "result": 1.02}, {"measurement": "relative viability", "setting": "[8]; first compound 0.8 µM", "result": 0.986}, {"measurement": "relative viability", "setting": "[8]; first compound 2.53 µM", "result": 1.04}, {"measurement": "relative viability", "setting": "[8]; first compound 8 µM", "result": 1.06}, {"measurement": "relative viability", "setting": "[9]; first compound 0.08 µM", "result": 0.594}, {"measurement": "relative viability", "setting": "[9]; first compound 0.253 µM", "result": 0.405}, {"measurement": "relative viability", "setting": "[9]; first compound 0.8 µM", "result": 0.461}, {"measurement": "relative viability", "setting": "[9]; first compound 2.53 µM", "result": 0.553}, {"measurement": "relative viability", "setting": "[9]; first compound 8 µM", "result": 0.305}, {"measurement": "relative viability", "setting": "[10]; first compound 0.08 µM", "result": 0.593}, {"measurement": "relative viability", "setting": "[10]; first compound 0.253 µM", "result": 0.513}, {"measurement": "relative viability", "setting": "[10]; first compound 0.8 µM", "result": 0.466}, {"measurement": "relative viability", "setting": "[10]; first compound 2.53 µM", "result": 0.574}, {"measurement": "relative viability", "setting": "[10]; first compound 8 µM", "result": 0.528}, {"measurement": "relative viability", "setting": "[11]; first compound 0.08 µM", "result": 0.556}, {"measurement": "relative viability", "setting": "[11]; first compound 0.253 µM", "result": 0.605}, {"measurement": "relative viability", "setting": "[11]; first compound 0.8 µM", "result": 0.454}, {"measurement": "relative viability", "setting": "[11]; first compound 2.53 µM", "result": 0.547}, {"measurement": "relative viability", "setting": "[11]; first compound 8 µM", "result": 0.553}, {"measurement": "relative viability", "setting": "[12]; first compound 0.08 µM", "result": 0.344}, {"measurement": "relative viability", "setting": "[12]; first compound 0.253 µM", "result": 0.284}, {"measurement": "relative viability", "setting": "[12]; first compound 0.8 µM", "result": 0.314}, {"measurement": "relative viability", "setting": "[12]; first compound 2.53 µM", "result": 0.302}, {"measurement": "relative viability", "setting": "[12]; first compound 8 µM", "result": 0.334}, {"measurement": "relative viability", "setting": "[13]; first compound 0.08 µM", "result": 0.75}, {"measurement": "relative viability", "setting": "[13]; first compound 0.253 µM", "result": 0.799}, {"measurement": "relative viability", "setting": "[13]; first compound 0.8 µM", "result": 0.781}, {"measurement": "relative viability", "setting": "[13]; first compound 2.53 µM", "result": 0.744}, {"measurement": "relative viability", "setting": "[13]; first compound 8 µM", "result": 0.719}, {"measurement": "relative viability", "setting": "[14]; first compound 0.08 µM", "result": 0.543}, {"measurement": "relative viability", "setting": "[14]; first compound 0.253 µM", "result": 0.464}, {"measurement": "relative viability", "setting": "[14]; first compound 0.8 µM", "result": 0.499}, {"measurement": "relative viability", "setting": "[14]; first compound 2.53 µM", "result": 0.421}, {"measurement": "relative viability", "setting": "[14]; first compound 8 µM", "result": 0.406}, {"measurement": "relative viability", "setting": "[15]; first compound 0.08 µM", "result": 0.62}, {"measurement": "relative viability", "setting": "[15]; first compound 0.253 µM", "result": 0.506}, {"measurement": "relative viability", "setting": "[15]; first compound 0.8 µM", "result": 0.685}, {"measurement": "relative viability", "setting": "[15]; first compound 2.53 µM", "result": 0.543}, {"measurement": "relative viability", "setting": "[15]; first compound 8 µM", "result": 0.465}, {"measurement": "relative viability", "setting": "[16]; first compound 0.08 µM", "result": 0.274}, {"measurement": "relative viability", "setting": "[16]; first compound 0.253 µM", "result": 0.292}, {"measurement": "relative viability", "setting": "[16]; first compound 0.8 µM", "result": 0.25}, {"measurement": "relative viability", "setting": "[16]; first compound 2.53 µM", "result": 0.26}, {"measurement": "relative viability", "setting": "[16]; first compound 8 µM", "result": 0.314}, {"measurement": "relative viability", "setting": "[17]; first compound 0.08 µM", "result": 0.446}, {"measurement": "relative viability", "setting": "[17]; first compound 0.253 µM", "result": 0.532}, {"measurement": "relative viability", "setting": "[17]; first compound 0.8 µM", "result": 0.525}, {"measurement": "relative viability", "setting": "[17]; first compound 2.53 µM", "result": 0.486}, {"measurement": "relative viability", "setting": "[17]; first compound 8 µM", "result": 0.415}, {"measurement": "relative viability", "setting": "[18]; first compound 0.08 µM", "result": 0.378}, {"measurement": "relative viability", "setting": "[18]; first compound 0.253 µM", "result": 0.386}, {"measurement": "relative viability", "setting": "[18]; first compound 0.8 µM", "result": 0.312}, {"measurement": "relative viability", "setting": "[18]; first compound 2.53 µM", "result": 0.34}, {"measurement": "relative viability", "setting": "[18]; first compound 8 µM", "result": 0.29}, {"measurement": "relative viability", "setting": "[19]; first compound 0.08 µM", "result": 0.589}, {"measurement": "relative viability", "setting": "[19]; first compound 0.253 µM", "result": 0.431}, {"measurement": "relative viability", "setting": "[19]; first compound 0.8 µM", "result": 0.448}, {"measurement": "relative viability", "setting": "[19]; first compound 2.53 µM", "result": 0.429}, {"measurement": "relative viability", "setting": "[19]; first compound 8 µM", "result": 0.468}, {"measurement": "relative viability", "setting": "[20]; first compound 0.08 µM", "result": 0.482}, {"measurement": "relative viability", "setting": "[20]; first compound 0.253 µM", "result": 0.371}, {"measurement": "relative viability", "setting": "[20]; first compound 0.8 µM", "result": 0.422}, {"measurement": "relative viability", "setting": "[20]; first compound 2.53 µM", "result": 0.42}, {"measurement": "relative viability", "setting": "[20]; first compound 8 µM", "result": 0.349}, {"measurement": "relative viability", "setting": "[21]; first compound 0.253 µM", "result": 0.509}, {"measurement": "relative viability", "setting": "[21]; first compound 0.8 µM", "result": 0.478}, {"measurement": "relative viability", "setting": "[21]; first compound 2.53 µM", "result": 0.482}, {"measurement": "relative viability", "setting": "[21]; first compound 8 µM", "result": 0.382}, {"measurement": "relative viability", "setting": "[22]; first compound 0.08 µM", "result": 0.597}, {"measurement": "relative viability", "setting": "[22]; first compound 0.253 µM", "result": 0.524}, {"measurement": "relative viability", "setting": "[22]; first compound 0.8 µM", "result": 0.522}, {"measurement": "relative viability", "setting": "[22]; first compound 2.53 µM", "result": 0.505}, {"measurement": "relative viability", "setting": "[22]; first compound 8 µM", "result": 0.452}, {"measurement": "relative viability", "setting": "[23]; first compound 0.08 µM", "result": 0.79}, {"measurement": "relative viability", "setting": "[23]; first compound 0.253 µM", "result": 0.804}, {"measurement": "relative viability", "setting": "[23]; first compound 0.8 µM", "result": 0.746}, {"measurement": "relative viability", "setting": "[23]; first compound 2.53 µM", "result": 0.699}, {"measurement": "relative viability", "setting": "[23]; first compound 8 µM", "result": 0.906}]}]}
